{"source": "patent US12357601B2", "about": "“Composition for inhibiting growth of bacterium having menaquinone synthesis pathway through futalosine or futalosine derivative” (NOSTER INC., priority 2017, dated 2025)", "key": {"[1]": {"test_system": "Helicobacter pylori SS1 strain or TN2GF4 strain", "test": "Inhibitory effect (in vivo) of fatty acid, number of bacteria in gastric mucosa of infected mice", "set-up": "species or system C57BL/6 female mouse", "protocol": "A 5-week-old C57BL/6 female mouse was orally infected 3 times with Helicobacter pylori SS1 strain or TN2GF4 strain (1-5×10^8 CFU) every other day and dissected at 2 weeks from the final infection day, and the number of bacteria in the gastric mucosa was counted. The measurement and the number of bacteria in the gastric mucosa was performed as follows. First, the greater curvature of the stomach of the mouse was incised with scissors for ophthalmology, and the contents were washed away with phosphate buffered saline (pH 7.4, PBS). Next, the mucous membrane was scraped with a slide glass, 1 mL of PBS was added, the mixture was sandwiched between ground glass parts of two glass slides and evenly crushed to prepare a gastric mucosa suspension. The culture medium was applied on a Helicobacter agar plate, cultured for 3 days and the resulting colonies were counted. Water added with fatty acid (200 μM) (HYA, HYB, KetoA, KetoC, linoleic acid, oleic acid, DHA, EPA) was given to the mice from 1 week before infection. The control was free of fatty acid addition (FIG. 3-1 A: infected with SS1 strain, FIG. 3-2 B: infected with TN2GF4 strain)."}, "Ki-67 positive cells": {"test_system": "Ki-67 positive cells", "test": "Gastric MALT lymphoma model: Ki-67 positive cells in lymphoid follicle (immunostaining)", "format": "in vivo, C57BL/6 female mouse", "conditions": "200 μM in water; 6 months after infection with Helicobacter suis TKY strain", "protocol": "(§1) Helicobacter suis is suspected to be the cause of the onset of gastric MALT lymphoma. A 5-week-old C57BL/6 female mouse was orally infected only once with a stomach suspension of Helicobacter suis TKY strain-infected mouse and dissected 6 months after the infection, and the number of bacteria in the gastric mucosa was counted according to the method described in Example 5. Water added with HYA (200 μM) was given to the mouse from one week before the infection.\nKi-67 is known as a marker for cell proliferation and cell cycle. Proliferated cells in a tumor tissue were detected by immunostaining with anti-Ki-67 antibody. A part of the stomach was fixed with 10% neutral formalin buffer to prepare a paraffin block, serial sections were cut out using a microtome and Hematoxylin Eosin (HE) staining was performed. Ki-67 (Clone SP6) rabbit monoclonal antibody (Thermo Fisher Scientific Inc.) diluted 1:300 was used as a dilution antibody, Histofine Simple Stain mouse MAX-PO® (NICHIREI BIOSCIENCES INC., Code: 414341) DAB staining (DAKO Inc.) was used as a secondary antibody, and Hematoxylin was used for comparison staining. As the negative control, rabbit IgG antibody (Code No. X 0936 Lot 050 (DAKO Inc.)) was used. […]"}, "[2]": {"test_system": "Helicobacter pylori TK1029 strain", "test": "Proliferation inhibitory effect (in vitro) by ED50 measurement, viable count", "format": "cell-based", "protocol": "Helicobacter pylori TK1029 strain (clinical isolate) was cultured in Brucella broth containing 10% FCS and 1×10^6 CFU of bacteria were respectively added to 3 mL of Brain-Heart Infusion Broth (BHI) media (previously added with free fatty acid (stearic acid, oleic acid, linoleic acid, ricinoleic acid, HYA) at 0, 0.5, 5, 50, 500 μg/mL) containing 2% FCS in a 6-well plate. Shaking culture was performed under conditions of temperature 37° C., humidity 100%, microaerobic (5% 02, 10% CO2, 85% N2), the culture medium (0.1 mL) from each well was applied to NISSUI plate, Helicobacter agar medium 15 hr and 25 hr later, and the number of colonies formed after microaerobic culture for 3 days was counted."}, "[3]": {"test_system": "Helicobacter pylori SS1 strain, TN2GF4 strain, TK1029 strain, RC-1 strain", "test": "Proliferation inhibitory effect (in vitro) of low concentration fatty acid, shaking culture 24 hr, colony count", "format": "cell-based", "conditions": "fatty acid 20 μM, 24 hr; SS1, TN2GF4, TK1029, RC-1 strains; compared with linoleic acid", "protocol": "Helicobacter pylori SS1 strain, TN2GF4 strain, TK1029 strain, RC-1 strain were each inoculated to a 6-well plate containing 2 mL of a liquid medium (BHI added with 5% FCS), and fatty acid (20 μM) and menaquinone (MK-4) 100 μg/mL were added. After shaking culture for 24 hr at temperature 37° C., microaerobic conditions (5% 02, 10% CO2, 85% N2), the culture medium was applied on a Helicobacter agar plate, cultured for 3 days and the resulting colonies were counted (FIG. 2-1 A: SS1 strain, FIG. 2-2 B: TN2GF4 strain, FIG. 2-3 C: TK1029 strain, FIG. 2-4 D: RC-1 strain. Item 1: control (menaquinone no addition), Item 2: control (menaquinone 100 μg/mL addition), Item 3: HYA 20 μM (menaquinone no addition), Item 4: HYA 20 μM (menaquinone 100 μg/mL addition), Item 5: linoleic acid 20 μM (menaquinone no addition), Item 6: linoleic acid 20 μM (menaquinone 100 μg/mL addition). *, P<0.0001 vs. Control (ordinary one-way ANOVA))."}, "[4]": {"test_system": "Helicobacter suis TKY strain", "test": "Gastric MALT lymphoma model: number of Helicobacter suis bacteria in the stomach 6 months after infection", "format": "in vivo, C57BL/6 female mouse", "conditions": "200 μM in water", "protocol": "as §1\nThe measurement of the number of Helicobacter suis bacteria in the stomach of the infected mouse was performed in the same manner as in Example 5. The relative value of the number of bacteria in gastric mucosa when that with HYA non-administration is 1 is shown (FIG. 5-1 A, Item 1: HYA non-administration group, Item 2: HYA administration group)."}}}
{"smiles": "CCCCC/C=C\\CC(O)CCCCCCCCC(=O)O", "note": "(stereo not drawn) [HYA, 10-hydroxy-cis-12-octadecenoic acid]", "values": [{"measurement": "number of Helicobacter pylori in the gastric mucosa, compared to the control", "setting": "[1]; 200 μM in water from 1 week before infection, 2 weeks from final infection, both SS1 and TN2GF4 strain", "result": "significantly suppressed"}, {"measurement": "suppressive action compared to HYB, KetoA, KetoC, linoleic acid, oleic acid, DHA and EPA", "setting": "[1]; 200 μM in water, SS1 and TN2GF4 strain infected mice", "result": "strong suppressive action"}, {"measurement": "increase in the number of Ki-67 positive cells, compared to the non-administration group", "setting": "Ki-67 positive cells", "result": "significantly suppressed"}, {"measurement": "ED50 value times lower than that of ricinoleic acid", "setting": "[2]; 15 hr after culturing", "result": "about 10 times"}, {"measurement": "ED50 value, 15 hr later", "setting": "[2]; 15 hr shaking culture, BHI 2% FCS, viable count", "result": 0.5, "unit": "µg/mL"}, {"measurement": "ED50 values compared with the other fatty acids", "setting": "[2]; 25 hr after culturing", "result": "remarkably lower than or the same level as"}, {"measurement": "ED50 value, 25 hr later", "setting": "[2]; 25 hr shaking culture, BHI 2% FCS, viable count", "result": 0.5, "unit": "µg/mL"}, {"measurement": "proliferation of Helicobacter pylori (colony count)", "setting": "[3]", "result": "suppressed proliferation"}, {"measurement": "number of Helicobacter suis bacteria in gastric mucosa, compared to the non-administration group", "setting": "[4]", "result": "significantly suppressed"}]}
